According to PubChem BioAssay (NCI):
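1) Cells in 96-well plates. 2) Compound, 48 h, 5 concentrations. 3) Linear interpolation between surrounding doses. 4) Unreached endpoint = highest concentration. GI50 marks 50% less growth. TGI: total growth inhibition.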

Tests used:
Experiment in all cases: NCI tumour cell line growth inhibition, 48 h
786-0 renal = tested on: 786-0 renal
A498 renal = tested on: A498 renal
A549 NSCLC = tested on: A549 NSCLC
ACHN renal = tested on: ACHN renal
CAKI-1 renal = tested on: CAKI-1 renal
CCRF-CEM leukemia = tested on: CCRF-CEM leukemia
COLO 205 colon = tested on: COLO 205 colon
DLD-1 colon = tested on: DLD-1 colon
DMS 114 small cell lung = tested on: DMS 114 small cell lung
DMS 273 small cell lung = tested on: DMS 273 small cell lung
DU-145 prostate = tested on: DU-145 prostate
EKVX NSCLC = tested on: EKVX NSCLC
HCC-2998 colon = tested on: HCC-2998 colon
HCT-116 colon = tested on: HCT-116 colon
HCT-15 colon = tested on: HCT-15 colon
HL-60(TB) leukemia = tested on: HL-60(TB) leukemia
HOP-62 NSCLC = tested on: HOP-62 NSCLC
HOP-92 NSCLC = tested on: HOP-92 NSCLC
HS 578T breast = tested on: HS 578T breast
HT29 colon = tested on: HT29 colon
IGROV1 ovarian = tested on: IGROV1 ovarian
K-562 leukemia = tested on: K-562 leukemia
KM12 colon = tested on: KM12 colon
KM20L2 colon = tested on: KM20L2 colon
LOX IMVI melanoma = tested on: LOX IMVI melanoma
LXFL 529 NSCLC = tested on: LXFL 529 NSCLC
M14 melanoma = tested on: M14 melanoma
M19-MEL melanoma = tested on: M19-MEL melanoma
MALME-3M melanoma = tested on: MALME-3M melanoma
MCF7 breast = tested on: MCF7 breast
MDA-MB-231 breast = tested on: MDA-MB-231 breast
MDA-MB-435 = tested on: MDA-MB-435
MOLT-4 leukemia = tested on: MOLT-4 leukemia
NCI-H226 lung = tested on: NCI-H226 lung
NCI-H23 lung = tested on: NCI-H23 lung
NCI-H460 lung = tested on: NCI-H460 lung
NCI-H522 lung = tested on: NCI-H522 lung
NCI/ADR-RES ovarian = tested on: NCI/ADR-RES ovarian
OVCAR-3 ovarian = tested on: OVCAR-3 ovarian
OVCAR-4 ovarian = tested on: OVCAR-4 ovarian
OVCAR-5 ovarian = tested on: OVCAR-5 ovarian
OVCAR-8 ovarian = tested on: OVCAR-8 ovarian
PC-3 prostate = tested on: PC-3 prostate
RPMI-8226 leukemia = tested on: RPMI-8226 leukemia
RXF 393 renal = tested on: RXF 393 renal
RXF-631 renal = tested on: RXF-631 renal
SF-268 CNS = tested on: SF-268 CNS
SF-295 CNS = tested on: SF-295 CNS
SF-539 CNS = tested on: SF-539 CNS
SK-MEL-2 melanoma = tested on: SK-MEL-2 melanoma
SK-MEL-28 melanoma = tested on: SK-MEL-28 melanoma
SK-MEL-5 melanoma = tested on: SK-MEL-5 melanoma
SK-OV-3 ovarian = tested on: SK-OV-3 ovarian
SN12C renal = tested on: SN12C renal
SNB-19 CNS = tested on: SNB-19 CNS
SNB-75 CNS = tested on: SNB-75 CNS
SNB-78 CNS = tested on: SNB-78 CNS
SR leukemia = tested on: SR leukemia
SW-620 colon = tested on: SW-620 colon
T-47D breast = tested on: T-47D breast
TK-10 renal = tested on: TK-10 renal
U251 CNS = tested on: U251 CNS
UACC-257 melanoma = tested on: UACC-257 melanoma
UACC-62 melanoma = tested on: UACC-62 melanoma
UO-31 renal = tested on: UO-31 renal
HOP-18 NSCLC = tested on: HOP-18 NSCLC
XF 498 CNS = tested on: XF 498 CNS

CC1=C(C(=O)Nc2cc(F)c(F)cc2F)C(c2ccc(N(C)C)cc2)C(C(=O)Nc2cc(F)c(F)cc2F)=C(C)N1
TGI (786-0 renal): > 100 µM | TGI (A498 renal): 80.5 µM | TGI (A549 NSCLC): > 60.5 µM | TGI (ACHN renal): > 87.9 µM | TGI (CAKI-1 renal): > 67.7 µM | TGI (CCRF-CEM leukemia): > 85.9 µM | TGI (COLO 205 colon): > 100 µM | TGI (DLD-1 colon): > 100 µM | TGI (DMS 114 small cell lung): 62.8 µM | TGI (DMS 273 small cell lung): > 100 µM | GI50 (DU-145 prostate): 49.4 µM | TGI (DU-145 prostate): > 100 µM | TGI (EKVX NSCLC): 75.6 µM | TGI (HCC-2998 colon): > 83 µM | GI50 (HCT-116 colon): 30.4 µM | TGI (HCT-116 colon): > 100 µM | GI50 (HCT-15 colon): 28.6 µM | TGI (HCT-15 colon): > 100 µM | TGI (HL-60(TB) leukemia): > 61.2 µM | TGI (HOP-62 NSCLC): > 100 µM | TGI (HOP-92 NSCLC): 15.2 µM | GI50 (HS 578T breast): 28.2 µM | TGI (HS 578T breast): > 100 µM | TGI (HT29 colon): > 91.3 µM | TGI (IGROV1 ovarian): > 100 µM | TGI (K-562 leukemia): > 100 µM | TGI (KM12 colon): > 75.5 µM | TGI (KM20L2 colon): > 100 µM | TGI (LOX IMVI melanoma): > 100 µM | TGI (LXFL 529 NSCLC): 63 µM | TGI (M14 melanoma): > 100 µM | TGI (M19-MEL melanoma): > 100 µM | TGI (MALME-3M melanoma): > 100 µM | GI50 (MCF7 breast): 16.3 µM | TGI (MCF7 breast): > 100 µM | GI50 (MDA-MB-231 breast): 19 µM | TGI (MDA-MB-231 breast): > 100 µM | GI50 (MDA-MB-435): 41.7 µM | TGI (MDA-MB-435): > 100 µM | TGI (MOLT-4 leukemia): > 77.2 µM | TGI (NCI-H226 lung): > 92.9 µM | TGI (NCI-H23 lung): > 85.1 µM | TGI (NCI-H460 lung): > 100 µM | TGI (NCI-H522 lung): 51 µM | GI50 (NCI/ADR-RES ovarian): 41.2 µM | TGI (NCI/ADR-RES ovarian): > 100 µM | TGI (OVCAR-3 ovarian): 49.7 µM | TGI (OVCAR-4 ovarian): > 79.1 µM | TGI (OVCAR-5 ovarian): > 100 µM | TGI (OVCAR-8 ovarian): > 100 µM | GI50 (PC-3 prostate): 13.7 µM | TGI (PC-3 prostate): > 100 µM | TGI (RPMI-8226 leukemia): > 68.6 µM | TGI (RXF 393 renal): 64.3 µM | TGI (RXF-631 renal): 86.2 µM | TGI (SF-268 CNS): > 100 µM | TGI (SF-295 CNS): > 77.2 µM | TGI (SF-539 CNS): > 74.1 µM | TGI (SK-MEL-2 melanoma): > 100 µM | TGI (SK-MEL-28 melanoma): > 100 µM | TGI (SK-MEL-5 melanoma): > 74.3 µM | TGI (SK-OV-3 ovarian): > 100 µM | TGI (SN12C renal): > 100 µM | TGI (SNB-19 CNS): > 100 µM | TGI (SNB-75 CNS): 48.1 µM | TGI (SNB-78 CNS): 65.4 µM | GI50 (SR leukemia): 18.7 µM | TGI (SR leukemia): > 100 µM | TGI (SW-620 colon): > 100 µM | GI50 (T-47D breast): 3.64 µM | TGI (T-47D breast): 59.2 µM | TGI (TK-10 renal): > 96 µM | TGI (U251 CNS): > 100 µM | TGI (UACC-257 melanoma): > 82.8 µM | GI50 (UACC-62 melanoma): 12.2 µM | TGI (UACC-62 melanoma): 89.8 µM | TGI (UO-31 renal): > 84.4 µM

O=C(OCc1ccccc1)N1N=NC2C3CC(OCc4ccccc4)(OCc4ccccc4)C(O3)C21 (stereo not drawn)
TGI (786-0 renal): > 100 µM | TGI (A498 renal): > 100 µM | TGI (A549 NSCLC): > 100 µM | TGI (ACHN renal): > 100 µM | TGI (CAKI-1 renal): > 100 µM | TGI (CCRF-CEM leukemia): > 100 µM | TGI (COLO 205 colon): 63 µM | TGI (DLD-1 colon): > 100 µM | TGI (DMS 114 small cell lung): 53.1 µM | TGI (DMS 273 small cell lung): 94.9 µM | TGI (HCC-2998 colon): 83.2 µM | TGI (HCT-15 colon): > 100 µM | TGI (HL-60(TB) leukemia): 32.6 µM | TGI (HOP-18 NSCLC): 94 µM | TGI (HOP-62 NSCLC): > 100 µM | TGI (HOP-92 NSCLC): 43.9 µM | TGI (HT29 colon): > 100 µM | TGI (IGROV1 ovarian): > 100 µM | TGI (K-562 leukemia): 73.6 µM | TGI (KM12 colon): > 100 µM | TGI (KM20L2 colon): > 100 µM | TGI (LOX IMVI melanoma): 42.8 µM | TGI (LXFL 529 NSCLC): > 100 µM | TGI (M14 melanoma): > 100 µM | TGI (M19-MEL melanoma): 77.6 µM | TGI (MALME-3M melanoma): 43.1 µM | TGI (MOLT-4 leukemia): 60.7 µM | TGI (NCI-H226 lung): 41.8 µM | TGI (NCI-H23 lung): 38.9 µM | TGI (NCI-H460 lung): > 100 µM | TGI (OVCAR-3 ovarian): 59.6 µM | TGI (OVCAR-4 ovarian): > 100 µM | TGI (OVCAR-5 ovarian): 70.4 µM | TGI (RPMI-8226 leukemia): > 100 µM | TGI (RXF 393 renal): 35.6 µM | TGI (RXF-631 renal): > 100 µM | TGI (SF-268 CNS): 87.7 µM | TGI (SF-295 CNS): > 100 µM | TGI (SF-539 CNS): > 100 µM | TGI (SK-MEL-2 melanoma): 33 µM | TGI (SK-MEL-28 melanoma): 55.1 µM | TGI (SK-OV-3 ovarian): > 100 µM | TGI (SN12C renal): > 100 µM | TGI (SNB-75 CNS): 82.4 µM | TGI (SNB-78 CNS): > 100 µM | TGI (SW-620 colon): 80.5 µM | TGI (U251 CNS): > 100 µM | TGI (UACC-257 melanoma): 41.4 µM | TGI (UACC-62 melanoma): 61.4 µM | TGI (UO-31 renal): 28.4 µM | TGI (XF 498 CNS): 53.4 µM
